Results reported in PMC6818106, “Synthesis of thiazolidin-4-ones and thiazinan-4-ones from 1-(2-aminoethyl)pyrrolidine as acetylcholinesterase inhibitors” (Journal of Enzyme Inhibition and Medicinal Chemistry, 2019).

Tests used:
AChE [1] = biological target: T1, AChE (Rattus norvegicus, UniProt P37136); assay: In vitro AChE activity (Ellman method) in cerebral cortex homogenate; format: biochemical; conditions: for IC50: rat cerebral cortex homogenate, calculated with GraphPad Prism 5, read-out: IC50 of AChE inhibition, Cortex; for concentration from which AChE activity was inhibited, cerebral cortex: vs control group (water and methanol), p < .05, tested 0.1-250 μM
T1 construct: the use of crude homogenised from rat’s brain structures, as used in the present work; from tissue; host or cells: Wistar rat cerebral cortex, homogenate supernatant
Protocol: (§1) In vitro was evaluated the potential inhibition of thiazolidin-4-ones and thiazinan-4-ones against AChE activity enzyme in hippocampus and cerebral cortex of Wistar rats (60 days, 250–300 g), since it is well described that these two structures in the brain play an important role in memory. All procedures involving the animals were approved by the Committee of Ethics in Animal Experimentation of UFPel (CEEA 9219). The animals were submitted to euthanasia and the brain was removed. Subsequently, the hippocampus and cerebral cortex were separated and homogenised in buffer Tris HCl 10 mM (pH 7.4). The homogenates were centrifuged at 1800 rpm for 10 min and the supernatant was used for in vitro analyses of the potential inhibitory effect of thiazolidin-4-one and thiazinan-4-ones on AChE activity.
(§2) The compounds were solubilised in methanol and prepared in different concentrations (0.1, 0.5, 1, 5, 10, 25, 50, 100 and 250 μM). […] The thiocholine, in turn, reacts with DTNB to form a chromophore, 5-thio-2-nitrobenzoic, which is quantified spectrophotometrically at 412 nm. The enzymatic activity was expressed in μmols of AcSCh/h/mg protein. Proteins were determined by the method of Bradford[29] using the Coomassie Blue reagent. Bovine albumin was used as standard.

AChE [2] = biological target: T1, AChE; assay: In vitro AChE activity (Ellman method) in hippocampus homogenate; format: biochemical; conditions: for IC50: rat hippocampus homogenate, calculated with GraphPad Prism 5, read-out: IC50 of AChE inhibition, Hippocampus; for concentration from which AChE activity was inhibited, hippocampus: vs control group (water and methanol), p < .05, tested 0.1-250 μM
Protocol: as §1, §2

cortical astrocytes = assay: Cytotoxicity in cortical astrocyte primary culture (MTT cell viability); format: cell-based; conditions: 100 μM, 48 h and 72 h; p > .05
Protocol: In the evaluation of the cytotoxicity of the thiazolidin-4-ones and thiazinan-4-ones in astrocytes, Wistar rats (1–2 days) were used to obtain cortical astrocytes, which were cultured in 96-well plates (3x10^4 per well) and maintained with Dulbecco’s modified Eagle’s medium (DMEM) supplemented with 10% Bovine Foetal Serum (FBS)[30]. Cells were maintained under standard conditions (5% CO2, 37 °C and humidified atmosphere) for 15 days, receiving periodic exchange of culture medium until treatments were received. After time and maturation, the astrocytes were treated with the compounds at the concentration of 100 μM. Cells were exposed to this concentration for 48 h and 72 h. After treatment, cell viability was analysed by the test of 3-(4,5-dimethylthiazol-2yl)-2,5-diphenyltetrazolium bromide (MTT). This method consists of measuring the number of cells with the metabolically active mitochondria, based on the reduction of the tetrazolium salt to the formazan crystals. The absorbance was determined on a microplate reader at 492 nm. The absorbance is linearly proportional to the number of cells with active mitochondria, indicating how many viable cells remained at the end of the treatment.

T1 sequence (P37136 32-614): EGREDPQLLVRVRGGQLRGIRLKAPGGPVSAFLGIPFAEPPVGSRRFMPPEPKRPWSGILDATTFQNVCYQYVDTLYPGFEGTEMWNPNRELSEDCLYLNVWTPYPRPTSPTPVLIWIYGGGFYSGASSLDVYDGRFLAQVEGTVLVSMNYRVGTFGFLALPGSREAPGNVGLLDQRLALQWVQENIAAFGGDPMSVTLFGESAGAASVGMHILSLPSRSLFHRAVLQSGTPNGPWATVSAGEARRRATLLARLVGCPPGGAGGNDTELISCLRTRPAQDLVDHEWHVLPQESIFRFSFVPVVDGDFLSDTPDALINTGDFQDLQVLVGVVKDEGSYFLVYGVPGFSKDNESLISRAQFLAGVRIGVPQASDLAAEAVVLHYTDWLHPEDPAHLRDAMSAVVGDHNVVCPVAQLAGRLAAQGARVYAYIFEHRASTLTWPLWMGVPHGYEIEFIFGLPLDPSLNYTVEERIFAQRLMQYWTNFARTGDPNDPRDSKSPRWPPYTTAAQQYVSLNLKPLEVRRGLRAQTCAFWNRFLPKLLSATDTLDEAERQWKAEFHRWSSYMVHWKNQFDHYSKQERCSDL

Molecule | IC50 (AChE [1]) | concentration from which AChE activity was inhibited, cerebral cortex (AChE [1]) | IC50 (AChE [2]) | concentration from which AChE activity was inhibited, hippocampus (AChE [2]) | cell viability of astrocyte primary culture (MTT) (cortical astrocytes) | AChE inhibition activity (qualitative) (AChE [2]; disubstituted aryl, tissue not stated in the sentence (follows hippocampus results))
2-(2-methoxyphenyl)-3-(2-(pyrrolidin-1-yl)ethyl)-1,3-thiazinan-4-one [6l] | > 250 µM | ≥ 100 µM | 84.9 µM | ≥ 100 µM | – | –
O=C1CSC(c2ccccc2)N1CCN1CCCC1 (centres unmarked) [5a, 2-phenyl-3-(2-(pyrrolidin-1-yl)ethyl)thiazolidin-4-one] | > 250 µM | – | 30.9 µM | – | – | –
O=C1CSC(c2ccc(Cl)cc2)N1CCN1CCCC1 (centres unmarked) [5g, 2-(4-chlorophenyl)-3-(2-(pyrrolidin-1-yl)ethyl)thiazolidin-4-one] | > 250 µM | – | > 250 µM | – | – | –
O=C1CSC(c2ccccc2[N+](=O)[O-])N1CCN1CCCC1 (centres unmarked) [5h, 2-(2-nitrophenyl)-3-(2-(pyrrolidin-1-yl)ethyl)thiazolidin-4-one] | > 250 µM | – | 105 µM | – | – | –
O=C1CSC(c2cccc([N+](=O)[O-])c2)N1CCN1CCCC1 (centres unmarked) [5i, 2-(3-nitrophenyl)-3-(2-(pyrrolidin-1-yl)ethyl)thiazolidin-4-one] | 10.2 µM | ≥ 10 µM | 81.6 µM | ≥ 10 µM | – | –
O=C1CSC(c2ccc([N+](=O)[O-])cc2)N1CCN1CCCC1 (centres unmarked) [5j, 2-(4-nitrophenyl)-3-(2-(pyrrolidin-1-yl)ethyl)thiazolidin-4-one] | 28.1 µM | ≥ 1 µM | 8.68 µM | ≥ 1 µM | did not change de cell viability | –
Cc1ccc(C2SCC(=O)N2CCN2CCCC2)cc1 (centres unmarked) [5k, 3-(2-(pyrrolidin-1-yl)ethyl)-2-p-tolylthiazolidin-4-one] | > 250 µM | – | > 250 µM | – | – | –
COc1ccc(C2SCC(=O)N2CCN2CCCC2)cc1 (centres unmarked) [5n, 2-(4-methoxyphenyl)-3-(2-(pyrrolidin-1-yl)ethyl)thiazolidin-4-one] | > 250 µM | – | > 250 µM | – | – | –
O=C1CSC(c2cccc(O)c2)N1CCN1CCCC1 (centres unmarked) [5o, 2-(3-hydroxyphenyl)-3-(2-(pyrrolidin-1-yl)ethyl)thiazolidin-4-one] | 27.6 µM | – | 30.6 µM | – | – | –
O=C1CCSC(c2ccccc2)N1CCN1CCCC1 (centres unmarked) [6a, 2-phenyl-3-(2-(pyrrolidin-1-yl)ethyl)-1,3-thiazinan-4-one] | 7.4 µM | ≥ 5 µM | 5.2 µM | ≥ 1 µM | did not change de cell viability | –
O=C1CCSC(c2ccc(Cl)cc2)N1CCN1CCCC1 (centres unmarked) [6g, 2-(4-chlorophenyl)-3-(2-(pyrrolidin-1-yl)ethyl)-1,3-thiazinan-4-one] | 57.2 µM | – | 50.5 µM | – | – | –
O=C1CCSC(c2ccccc2[N+](=O)[O-])N1CCN1CCCC1 (centres unmarked) [6h, 2-(2-nitrophenyl)-3-(2-(pyrrolidin-1-yl)ethyl)-1,3-thiazinan-4-one] | 11 µM | ≥ 1 µM | 92.8 µM | 5 µM | did not change de cell viability | –
O=C1CCSC(c2cccc([N+](=O)[O-])c2)N1CCN1CCCC1 (centres unmarked) [6i, 2-(3-nitrophenyl)-3-(2-(pyrrolidin-1-yl)ethyl)-1,3-thiazinan-4-one] | 50.6 µM | ≥ 50 µM | 29.4 µM | ≥ 50 µM | – | –
O=C1CCSC(c2ccc([N+](=O)[O-])cc2)N1CCN1CCCC1 (centres unmarked) [6j, 2-(4-nitrophenyl)-3-(2-(pyrrolidin-1-yl)ethyl)-1,3-thiazinan-4-one] | 40.1 µM | ≥ 10 µM | 9.32 µM | ≥ 1 µM | did not change de cell viability | –
Cc1ccc(C2SCCC(=O)N2CCN2CCCC2)cc1 (centres unmarked) [6k, 3-(2-(pyrrolidin-1-yl)ethyl)-2-(p-tolyl)-1,3-thiazinan-4-one] | 6.83 µM | ≥ 5 µM | 4.46 µM | ≥ 1 µM | did not change de cell viability | –
COc1cccc(C2SCCC(=O)N2CCN2CCCC2)c1 (centres unmarked) [6m, 2-(3-methoxyphenyl)-3-(2-(pyrrolidin-1-yl)ethyl)-1,3-thiazinan-4-one] | 24 µM | ≥ 25 µM | 90.3 µM | – | – | –
COc1ccc(C2SCCC(=O)N2CCN2CCCC2)cc1 (centres unmarked) [6n, 2-(4-methoxyphenyl)-3-(2-(pyrrolidin-1-yl)ethyl)-1,3-thiazinan-4-one] | 22.2 µM | ≥ 5 µM | 17 µM | – | did not change de cell viability | –
O=C1CCSC(c2cccc(O)c2)N1CCN1CCCC1 (centres unmarked) [6o, 2-(3-hydroxyphenyl)-3-(2-(pyrrolidin-1-yl)ethyl)-1,3-thiazinan-4-one] | 25.7 µM | ≥ 25 µM | 69.6 µM | – | – | –
COc1cccc(C2SCCC(=O)N2CCN2CCCC2)c1OC (centres unmarked) [6p, 2-(2,3-dimethoxyphenyl)-3-(2-(pyrrolidin-1-yl)ethyl)-1,3-thiazinan-4-one] | – | – | – | – | – | decrease in activity
